Experimental data published in the OPERA property sets (Mansouri et al. 2018).

## CCN1CC(C(O)C(CC2CCCCC2)NC(=O)C(Cc2c[nH]cn2)NC(=O)C(CC(=O)N2CCOCC2)Cc2ccccc2)OC1=O (stereo unspecified)
  logP: 2.2

## Clc1ccc(-c2cccc(Cl)c2)cc1
  logP: 5.15

## Nc1ccc(O)c2ncccc12
  logP: -0.11

## COC1CC(OC2CCC3(C=O)C4CCC5(C)C(C6=CC(=O)OC6)CCC5(O)C4CCC3(O)C2)OC(C)C1O (stereo unspecified)
  logP: 0.64

## CCC(C(=O)OCc1ccccc1)C(COC(=O)c1cccc(Cl)c1)Cc1cncn1C (stereo unspecified)
  logP: 5.08

## C1CC2OC2CC1C1CO1 (stereo unspecified)
  logP: 0.44

## CCOC(=O)C(CC)(CC)C(=O)NC(N)=O
  logP: 1.45

## CC1(C)[C@@H](O[C@H]2O[C@H](C(=O)O)[C@@H](O)[C@H](O)[C@H]2O[C@@H]2O[C@H](C(=O)O)[C@@H](O)[C@H](O)[C@H]2O)CC[C@]2(C)[C@H]3C(=O)C=C4[C@@H]5C[C@@](C)(C(=O)O)CC[C@]5(C)CC[C@@]4(C)[C@]3(C)CC[C@@H]12
  logP: 2.8

## CCCCCCCC1CC(C(=O)Nc2c(C(C)C)cccc2C(C)C)C(=O)O1 (stereo unspecified)
  logP: 4.72

## CC(=O)Nc1nc(NCC(O)CO)c(Cl)nc1[N+](=O)[O-] (stereo unspecified)
  logP: 0

## O=c1ccn([C@H]2CC[C@@H](CO)O2)c(=O)[nH]1
  logP: -1

## CC1(C)CCC(c2ccccc2)(N2CCCCC2)CC1
  logP: 6.39

## C=CCC(NC(=O)C(Cc1ccc(OC)cc1)NS(=O)(=O)N1CCOCC1)C(=O)NC(CC1CCCCC1)C(=O)C(F)(F)C(=O)NCCN1CCOCC1 (stereo unspecified)
  logP: 2.73

## COc1cc(C(=O)OC2N=C(c3ccccc3)c3cc(Cl)ccc3NC2=O)cc(OC)c1OC (stereo unspecified)
  logP: 3.75

## N=C(N)NN=Cc1ccccc1
  logP: 1.18

## CC(C)NCC1CCc2cc(CO)c([N+](=O)[O-])cc2N1 (stereo unspecified)
  logP: 2.24

## CCC1OC(=O)C(C)C(OC2CC(C)(OC)C(OC=O)C(C)O2)C(C)C(OC2OC(C)CC(N(C)C)C2O)C(C)(O)CC(C)C(=O)C(C)C(O)C1(C)O (stereo unspecified)
  logP: 2.64

## CC(=O)OCCCN1C(=O)C(OC(C)=O)N=C(c2ccccc2)c2cc(Cl)ccc21 (stereo unspecified)
  logP: 3.08

## [O-][n+]1ccc(NO)c2ccccc21
  logP: 0

## CCCCCCC(C)=NNC(=N)N
  logP: 2.08

## CCCCCc1cc(O)c2c(c1)OC(C)(C)C1CC=C(C)CC21 (stereo unspecified)
  logP: 7.41

## CCCCCCC(C)(C)c1cc(O)c2c(c1)OC(C)(C)C1CC=C(C)CC21 (stereo unspecified)
  logP: 9.96

## O=C(c1cccc(C(F)(F)F)c1)c1ccc2n1CCC2C(=O)O (stereo unspecified)
  logP: 3.69

## COC(=O)N(C)SN(C)C(=O)ON=C(C)SC
  logP: 1.4

## O=C(O)CCn1ccc2ccccc21
  logP: 2.2

## CCCOc1cc(Cc2cnc(N)nc2N)ccc1OC
  logP: 1.88

## O=C(O)c1cc(-c2ccc(F)cc2F)ccc1O
  logP: 4.44

## CCn1c(=O)n(C)c(=O)c2[nH]cnc21
  logP: 0.52

## O=C(O)c1ccc(Cl)cc1Nc1cccc(Br)c1
  logP: 5.16

## NNC(=O)c1ccnc(I)c1
  logP: 0.52

## O=C(O)c1ccc(Cl)cc1Nc1ccc(I)cc1
  logP: 5.37

## OC1(c2cc(Cl)ccc2Cl)CCCCC1n1cncn1 (stereo unspecified)
  logP: 3.24

## CCCCCCCCCCCCCCCCCCCC(=O)O
  logP: 9.29

## C=Cc1ccc(C(=O)O)cc1
  logP: 2.18

## C=CCC(NC(=O)C(Cc1ccccc1)NS(=O)(=O)N1CCN(C)CC1)C(=O)NC(CC1CCCCC1)C(=O)C(F)(F)C(=O)NCCN1CCOCC1 (stereo unspecified)
  logP: 2.73

## N#Cc1ccc(C[Se]CCC(=O)O)cc1
  logP: 1.37

## O=C(CCN1CCC(O)(c2ccc(Cl)cc2)CC1)c1ccc(F)cc1
  logP: 3.24

## COc1cccc2c1C(=O)c1c(O)c3c(c(O)c1C2=O)CC(O)(C(C)=O)CC3OC1CC(N2CCOCC2C#N)C(O)C(C)O1 (stereo unspecified)
  logP: 2.59

## CCNC(=O)NS(=O)(=O)c1ccc(Cl)cc1
  logP: 1.79

## Clc1ccc(Br)cc1NC1=NCCN1
  logP: 2.05

## CCOC(=O)CC(NC(=O)CCCCSc1ncnc2nc[nH]c12)C(=O)OCC (stereo unspecified)
  logP: 1.33

## Cc1cc(=O)n2c(n1)CCCC2C (stereo unspecified)
  logP: 0.67

## O=[N+]([O-])c1cnc(N=C2NCCO2)s1
  logP: 0.57

## C=CCOc1ccc(C(=O)c2ccc3n2CCC3C(=O)O)cc1 (stereo unspecified)
  logP: 3.48

## CCCCNC(=O)c1cc(Br)cc(C)c1O
  logP: 4.21

## CNC(Cc1ccccc1)Cc1ccccc1
  logP: 3.8

## CNC(=O)COc1cccc(OCC(O)CNC(C)C)c1 (stereo unspecified)
  logP: 0.35

## Clc1cc(Cl)cc(-c2ccccc2)c1
  logP: 5.41

## CCCN(CCC)CC(=O)NCc1ccccc1
  logP: 3.11

## Nc1c([N+](=O)[O-])ccc2ncccc12
  logP: 1.61

## CC1CCCC(c2ccccc2)(N2CCCCC2)C1 (stereo unspecified)
  logP: 5.86

## CCCCCCC(C)(C)c1ccc(C2CC(O)CCC2CCCO)c(O)c1 (stereo unspecified)
  logP: 6.13

## NC(=O)c1cc(Cl)ccc1NCCO
  logP: 1.26

## COc1ccc(CCNCC(O)COc2ccc(-c3ncc(Cl)[nH]3)cc2)cc1OC (stereo unspecified)
  logP: 2.4

## CCCCC(O)C(=O)O (stereo unspecified)
  logP: 0.81

## CCN1CC(C(O)C(CC2CCCCC2)NC(=O)C(Cc2cnc[nH]2)NC(=O)C(CC(=O)N(C)CCOC)Cc2ccccc2)OC1=O (stereo unspecified)
  logP: 2.45
